Data on ten compounds can be found in patent publication US5054434A, “Suppression of ammonia odors from animal wastes” (W. R. Grace & Co.-Conn., priority 1989, dated 1991).

One series concerns the target jack bean urease (Canavalia ensiformis, UniProt P07374). In words: Ammonia accumulation from synthetic urine with urease on treated bedding. The format is biochemical. The settings on record: for control of accumulation of ammonia: procedure of Example 1; for ammonia smell in capped bottle: 12 mg acid, 15 g synthetic urine with 200 units urease, 37.5° C., after 4 hr. The method, then:
To test the effectiveness of the acid the following procedure has been used. A synthetic urine is made by combining 2.3 wt % urea and 1.1 wt % sodium chloride. To mimic the presence of bacteria, 200 units of jack bean urease is added to the synthetic urine. Jack bean urease is a readily available form of urease which is suitable for use in this context because useases from most natural sources appear to act similarly. See "Jack Bean Urease (EC 3.5.1.5).8. […] Chem. Soc. 1986, 108, 7124-7125.
This urine is then poured over a sample of bedding or other absorbent material to which the acid has been applied. The treated sample is covered so that any gases produced may accumulate. The presence of ammonia is tested for by using Draeger tubes.
Two 8 oz. polyethylene bottles were charged with 15 g of rice hulls and 15 g of sawdust, respectively. […] The bottles were capped, and incubated in a shaker bath at 37.5° C. […] By contrast, identical bottles not containing citric acid smelled strongly of ammonia.

The subject of another series is rabbit. The settings on record: cited from earlier work.
For series [1] the following is noted: smell of the acid itself; cited from earlier work.
The conditions of series [2]: cited from earlier work.
Another series relates to Bacillus pasteurii. In words: Ammonia accumulation from synthetic urine on rice hulls with live urease-producing bacteria. The conditions noted are these: 24 mg acid, 6 g rice hulls, 24 g synthetic urine, 37.5° C., after one day.
The next series relates to urease. The settings on record: literature statement (Mobley and Hausinger 1989); cited from earlier work.

Counter-ions that a name gives are not always drawn.

Chain of jack bean urease (P07374 whole entry, looked up): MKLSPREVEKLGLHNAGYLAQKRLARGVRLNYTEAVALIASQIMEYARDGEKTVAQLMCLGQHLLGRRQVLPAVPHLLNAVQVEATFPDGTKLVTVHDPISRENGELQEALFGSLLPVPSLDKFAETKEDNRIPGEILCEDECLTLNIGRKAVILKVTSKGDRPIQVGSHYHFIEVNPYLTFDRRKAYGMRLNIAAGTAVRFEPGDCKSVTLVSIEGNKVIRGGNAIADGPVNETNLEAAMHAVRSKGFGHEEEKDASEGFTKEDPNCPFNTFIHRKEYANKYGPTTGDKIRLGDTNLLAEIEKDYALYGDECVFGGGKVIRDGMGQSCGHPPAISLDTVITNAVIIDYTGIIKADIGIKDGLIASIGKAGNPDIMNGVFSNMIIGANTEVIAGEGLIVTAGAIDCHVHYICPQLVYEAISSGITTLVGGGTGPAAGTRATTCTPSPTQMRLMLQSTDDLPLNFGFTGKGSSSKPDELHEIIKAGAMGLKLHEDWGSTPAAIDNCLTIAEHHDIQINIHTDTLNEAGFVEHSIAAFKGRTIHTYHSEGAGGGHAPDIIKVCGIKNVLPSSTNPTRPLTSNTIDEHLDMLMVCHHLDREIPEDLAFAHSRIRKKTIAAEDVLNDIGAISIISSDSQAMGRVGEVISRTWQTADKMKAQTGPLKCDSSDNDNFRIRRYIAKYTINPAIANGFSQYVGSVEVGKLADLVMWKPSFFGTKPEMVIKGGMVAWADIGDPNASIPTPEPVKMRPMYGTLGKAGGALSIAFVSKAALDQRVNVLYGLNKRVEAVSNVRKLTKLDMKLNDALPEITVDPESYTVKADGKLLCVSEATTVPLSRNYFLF

As to `O=C(O)CC(O)C(=O)O` (stereo not drawn) [Malic, malic acid], the “control of accumulation of ammonia” value at jack bean urease (12 mg) is “sufficient to prevent the accumulation of noticeable amounts of ammonia”. In the series on rabbit, the “Oral LD50” value is reported as 5,000 mg/kg. Besides, the Smell result in series [1] is given as “None”.

As for `O=C(O)/C=C/C(=O)O` [Fumaric, fumaric acid], the “control of accumulation of ammonia” value on jack bean urease (6 mg) was “sufficient to prevent the accumulation of noticeable amounts of ammonia”.

For `OB(O)O` [boric acid, reference compound], the “control of accumulation of ammonia” value at jack bean urease (36 mg) was “not control the accumulation of ammonia”. Further, in series [2], the “First pKa” value is 9.1. With `CC(=O)O` [acetic acid, reference compound], the Smell result in series [1] is “strong and unpleasant smell”. Consider `C/C=C/C=C/C(=O)O` [Sorbic, sorbic], for which the Smell entry in series [1] is “None”. Further, the “First pKa” value in series [2] is recorded as 4.8. Take `O=C(O)CC(O)(CC(=O)O)C(=O)O` [Citric, citric acid]: the “ammonia smell in capped bottle” value at jack bean urease (15 g rice hulls) and on jack bean urease (15 g sawdust) was “no ammonia smell could be detected” each time. For the same compound, the Smell entry in series [1] was “None”. Besides, the “ammonia in bottle measured using a Draeger tube” value in the series with Bacillus pasteurii is recorded as “less than 5 ppm”.

Take `O=C(O)CC(O)(CC(=O)O)C(=O)O` [sodium citrate, reference compound]: the “control of accumulation of ammonia” value at jack bean urease (24 mg) is on record as “not to control the accumulation of ammonia”. With `O=C(O)CCC(=O)O` [Succinic, succinic], in series [1], the Smell result is reported as “None”.

As to phosphoric acid, on jack bean urease (6 mg), the “control of accumulation of ammonia” value is on record as “sufficient to prevent the accumulation of noticeable amounts of ammonia”. For the same compound, in the series with urease, the inhibition of urease entry is recorded as “inhibitor of urease”.

For the compound `O=C(O)CC(=O)O` [Malonic, malonic], the Smell entry in series [1] is listed as “None”.
